# Experimental data: patent US8722052B2, “Vaccinia virus protein A46 peptide and use thereof” (priority 2008, dated 2014)
# Columns and labels:
# cell viability = assay: MTT cell viability assay, more detailed investigation of screening hits; assay type: cell-based; conditions: cell type not stated
# Experimental: Cell viability was measured by assessing mitochondrial function using an MTT (3-(4,5-Dimethylthiazol-2-yl)-2,5-diphenyltetrazolium bromide) assay. Cells were seeded into 96 well plates and treated with peptides and agonists as described above in relation to the Figs. Wells containing medium only served as a blank control. To terminate treatment of cells, medium was removed and the cells were washed once with PBS. 200 μl per well of 1 mg/ml MTT in PBS was added directly to the cells and the plates were incubated at 37° C. for 14-16 hrs in the dark. MTT was then removed and 200 μl per well of dimethyl sulphoxide (DMSO) was added and cells incubated for 20 min at 37° C. in the dark, prior to absorbance being read at 595 nm on a spectrophotometer.
# p38 MAPK = assay: LPS-induced phospho-p38 MAPK in RAW264.7 cells, immunoblot; assay type: cell-based, murine; conditions: peptide 5 μM, 10 ng/ml LPS 5, 30 or 60 min
# Experimental: FIGS. 28A and B are immunoblots showing the effect of A464 on LPS-induced appearance of phospho-p38 MAPK in murine RAW264.7. Cells were set up as for FIG. 24 above and 5 μM A467 (SEQ ID NO. 23) or A464 (SEQ ID NO. 20) were added to the wells 1 hour before stimulation. Cells were stimulated with 10 ng/ml LPS for a period of 5, 30 or 60 min, then harvested and lysed. Proteins were resolved by SDS-PAGE, and transferred membranes immunoblotted for phospho-p38 (A) or total p38 (B). The blots shown are representative of two experiments;
# RAW264.7 cells were seeded at a density of 1×10^5 cells/ml in 6 well plates. After treatment with peptides and agonists, as described above in relation to the Figs, the medium was removed and the cells were washed once with PBS before scraping them in 100 μl lysis buffer (100 mM NaCl, 50 mM HEPES (pH 7.5), 1 mM EDTA, 0.5% NP-40, 10% Glycerol) and incubating them on ice for 40 min. Samples were spun at 15,000×g for 10min and supernatants collected and stored at −20° C. […] The protein concentration was determined by monitoring the change in the solution absorbance at 280 nm using a spectrophotometer compared to protein standards. […] Thereafter, the membranes were washed, incubated in appropriate secondary antibody and then developed using standard enhanced chemi-luminescence (ECL) reagents. […]
# IκBα = assay: LPS-induced IκBα degradation in RAW264.7 cells, immunoblot; assay type: cell-based, murine; conditions: peptide 4 μM 1 h before 10 ng/ml LPS for 5, 15, 30 or 60 min
# Experimental: FIGS. 25A and B are immunoblots showing the effect of A464 on LPS-induced IκBα degradation in murine RAW264.7 cells. Cells were seeded in 6-well plates at 1.5×10^5 cells/ml 24 hours prior to treatment with peptides. […] Cells were stimulated with 10 ng/ml LPS for a period of 5, 15, 30 or 60 min and then harvested on ice and lysed in 1% NP-40 containing lysis buffer. Lysates then were denatured using 5× sample buffer with DTT and resolved by SDS-PAGE. The proteins were transferred to PVDF membrane and the membrane was immunoblotted for IκBα (A). Equal protein loading was confirmed by re-probing the blot for β-actin (B). The blots shown are representative of two experiments;
# RAW264.7 cells were seeded at a density of 1×10^5 cells/ml in 6 well plates. […] The protein concentration was determined by monitoring the change in the solution absorbance at 280 nm using a spectrophotometer compared to protein standards. […] Thereafter, the membranes were washed, incubated in appropriate secondary antibody and then developed using standard enhanced chemi-luminescence (ECL) reagents.
# To further assay activation of NFκB, the degradation of its inhibitor IκBα, an event required for the translocation of the NFκB into the nucleus, was measured. […]
sequence,measurement,setting,value
KYSFKLILAEYRRRRRRRRR [Peptide A464],cell viability (MTT assay),cell viability,less toxic
same,inhibition of LPS-induced p38 phosphorylation,p38 MAPK,very potent inhibition of LPS-induced p38 phosphorylation at all the time points
same,effect on LPS-induced IκBα degradation,IκBα,blocked the degradation of IκBα seen at 15 and 30 min
